Data published in publication PMC7044277 (Nature Communications, 2020).
“And” between values parts separate entries of the source, which are not always exact repeats. Equal entries are not always repeated.

Legend:
5HT6 = target: T1, 5HT6 (Homo sapiens, UniProt P50406); experiment: β-arrestin2 recruitment (Tango); assay type: cell-based; conditions: Fig_S10p, agonist mode
T1 construct: expressed in transfected cells; host or cells: HTLA cells expressing TEV-fused β-arrestin2

DRD2 (D2 long receptor) = DRD2 (D2 long receptor) (Homo sapiens, UniProt P14416); experiment: Gαi/o-mediated cAMP inhibition (GloSensor split-luciferase cAMP reporter), HEK293T; assay type: cell-based; conditions: DRD2;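 also: compounds applied 15 min at room temperature, then luciferin plus 400 nM isoproterenol to raise cAMP through endogenous β2-adrenergic receptors, luminescence read 15 min later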
DRD2 F1103.28L = target: T2, DRD2 F1103.28L (Homo sapiens, UniProt P14416, F110L); experiment: Gαi/o-mediated cAMP inhibition (GloSensor), mutant; assay type: cell-based; conditions: DRD2 F1103.28L (b138 head prints DRD2 F1063.28L)
T2 construct: expressed in transfected cells; host or cells: HEK293T (ATCC CRL-11268)

DRD3 = DRD3 (Homo sapiens, UniProt P35462); experiment: β-arrestin2 recruitment (Tango); assay type: cell-based; conditions: for response, concentration-response data point (replicates): Fig_S10b, drug alone
[1] = system: serotonin receptor (subtype not given; reference agonist serotonin); experiment: β-arrestin2 recruitment (Tango), agonist activity, source data Fig_S10l; assay type: cell-based, human; conditions: drug alone

Sequence of DRD2 (D2 long receptor) (P14416 whole entry): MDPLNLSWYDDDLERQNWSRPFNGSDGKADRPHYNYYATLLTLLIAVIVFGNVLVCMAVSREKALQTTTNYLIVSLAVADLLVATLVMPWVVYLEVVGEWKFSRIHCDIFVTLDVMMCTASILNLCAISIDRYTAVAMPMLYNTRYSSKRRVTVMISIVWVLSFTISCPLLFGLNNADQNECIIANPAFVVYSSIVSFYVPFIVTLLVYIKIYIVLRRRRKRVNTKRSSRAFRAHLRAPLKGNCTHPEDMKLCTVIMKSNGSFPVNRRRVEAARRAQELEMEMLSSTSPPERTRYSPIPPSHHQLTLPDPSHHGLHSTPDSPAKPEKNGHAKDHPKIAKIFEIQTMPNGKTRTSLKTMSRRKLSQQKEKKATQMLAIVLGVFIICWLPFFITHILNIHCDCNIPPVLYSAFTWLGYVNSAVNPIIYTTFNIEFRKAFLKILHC
Sequence of DRD3 (P35462 whole entry): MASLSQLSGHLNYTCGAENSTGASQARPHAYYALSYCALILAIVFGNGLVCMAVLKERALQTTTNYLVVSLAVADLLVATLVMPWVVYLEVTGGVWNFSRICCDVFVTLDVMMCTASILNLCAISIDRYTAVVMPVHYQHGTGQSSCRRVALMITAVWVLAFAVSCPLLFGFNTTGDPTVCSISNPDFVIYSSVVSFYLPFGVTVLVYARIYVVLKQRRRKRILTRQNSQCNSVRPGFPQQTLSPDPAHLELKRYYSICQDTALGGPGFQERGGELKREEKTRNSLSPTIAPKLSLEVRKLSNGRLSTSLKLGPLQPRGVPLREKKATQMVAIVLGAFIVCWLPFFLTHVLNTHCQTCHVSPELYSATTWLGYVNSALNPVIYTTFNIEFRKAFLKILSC
T1 sequence (P50406 whole entry, the tested form may be a part): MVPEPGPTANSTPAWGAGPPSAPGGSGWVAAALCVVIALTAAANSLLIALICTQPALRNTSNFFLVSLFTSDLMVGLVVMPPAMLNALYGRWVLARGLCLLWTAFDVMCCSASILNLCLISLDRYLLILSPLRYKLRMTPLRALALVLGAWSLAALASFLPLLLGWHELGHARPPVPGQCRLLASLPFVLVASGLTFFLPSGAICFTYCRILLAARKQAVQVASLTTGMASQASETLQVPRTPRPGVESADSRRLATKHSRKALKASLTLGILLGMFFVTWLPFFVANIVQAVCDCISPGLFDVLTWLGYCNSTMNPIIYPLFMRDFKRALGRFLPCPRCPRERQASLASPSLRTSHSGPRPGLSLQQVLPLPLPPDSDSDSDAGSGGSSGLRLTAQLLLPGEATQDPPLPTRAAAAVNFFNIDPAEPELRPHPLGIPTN
T2 sequence (P14416 whole entry F110L): as the sequence (P14416 whole entry) above, with F110L counted along it

## CCOc1cccc2cc([C@H](C)NCC3(O)CCCCC3)oc12 [O4SE6]
5HT6; Log[Drug] -9
  β-arrestin2 recruitment response, replicate points of concentration-response curve: 2.499 and 9.663 and 0.775 and -0.2945 and -9.561 and -9.543 and -2.049 and -4.424 and -4.173
5HT6; Log[Drug] -9.52
  β-arrestin2 recruitment response, replicate points of concentration-response curve: -0.09214 and 0.5474 and -0.9647 and -12.1929 and -11.3831 and -2.5214 and -5.0455 and -0.3107 and 5.623
5HT6; Log[Drug] -10
  β-arrestin2 recruitment response, replicate points of concentration-response curve: 3.149 and 2.721 and -0.1138 and 8.135 and -9.598 and -12.4689 and 1.768 and 2.893 and -2.7151
5HT6; Log[Drug] -10.52
  β-arrestin2 recruitment response, replicate points of concentration-response curve: 2.504 and 5.311 and 0.7425 and -10.7297 and -3.616 and -12.1193 and -4.52 and 13.3166 and 0.2515
5HT6; Log[Drug] -11
  β-arrestin2 recruitment response, replicate points of concentration-response curve: 0.5474 and 6.401 and -0.2981 and -6.662 and -9.929 and -5.0796 and -2.915 and -3.588 and -2.353
5HT6; Log[Drug] -11.52
  β-arrestin2 recruitment response, replicate points of concentration-response curve: 1.409 and 4.46 and -0.7262 and -4.371 and -12.837 and -12.1009 and -3.803 and -3.24 and -3.847
DRD2 (D2 long receptor); agonist, Gαi/o-mediated cAMP inhibition, read-out: EC50 ± SEM
  EC50: 0.0185 µM
DRD2 (D2 long receptor); cAMP inhibition
  G protein agonist activity: selective DRD2 agonist
DRD2 (D2 long receptor); HEK-293T, read-out: Emax relative to quinpirole response, cAMP inhibition
  Emax: 91.9%
DRD2 F1103.28L
  EC50: > 10 µM
DRD3; DRD3, Tango
  β-arrestin2 recruitment agonist activity: no detectable agonist activity
DRD3; DRD3, Tango, read-out: EC50 ± SEM
  EC50: > 10 µM
DRD3; Log[Drug] -11
  response, concentration-response data point (replicates): 0.5878 and 2.511 and 1.194 and 2.15 and 1.1907 and 4.631 and -3.875 and 11.6724 and 8.605
  β-arrestin2 recruitment response at DRD3 (source data, replicate values): 0.522 and -0.07333 and -0.1743 and 0.2309 and 5.954 and 1.288 and -0.4182 and -0.01901 and 1.549
DRD3; Log[Drug] -11.52
  response, concentration-response data point (replicates): -0.276 and 0.7993 and -0.05881 and 1.198 and 0.07895 and 5.103 and 9.785 and 5.488 and 1.269
  β-arrestin2 recruitment response at DRD3 (source data, replicate values): 1.588 and -0.07592 and 0.1337 and 0.3757 and 0.0448 and -0.03791 and 0.4061 and 1.448 and -0.2186
DRD3; Log[Drug] -12
  response, concentration-response data point (replicates): 1.3136 and 1.529 and -0.0652 and 0.03793 and 0.02727 and 3.808 and -3.9762 and 0.1686 and 1.294
DRD3; Log[Drug] -6
  β-arrestin2 recruitment response at DRD3 (source data, replicate values): 12.3452
DRD3; Log[Drug] -6.52
  β-arrestin2 recruitment response at DRD3 (source data, replicate values): 8.082 and 5.965 and 11.0149 and 19.9759 and 10.9551 and 9.221 and 9.014 and 7.197 and 16.9834
DRD3; Log[Drug] -7
  β-arrestin2 recruitment response at DRD3 (source data, replicate values): 8.647 and 6.889 and 5.419 and 8.207 and 5.755 and 6.315 and 4.579 and 5.095 and 7.56
DRD3; Log[Drug] -7.52
  β-arrestin2 recruitment response at DRD3 (source data, replicate values): 4.34 and 0.6022 and 1.762 and 2.508 and 1.167 and 1.071 and 1.816 and 2.855 and 3.052
DRD3; Log[Drug] -8
  β-arrestin2 recruitment response at DRD3 (source data, replicate values): 0.7316 and 0.3304 and 1.058 and 0.6729 and 0.7789 and 1.51 and 1.953 and 1.946 and 0.2868
DRD3; Log[Drug] -8.52
  β-arrestin2 recruitment response at DRD3 (source data, replicate values): 1.063 and 0.9542 and 0.434 and 0.6781 and 0.1637 and 0.2619 and 0.09244 and 0.8182 and 0.08985
DRD3; Log[Drug] -9
  β-arrestin2 recruitment response at DRD3 (source data, replicate values): -0.1872 and 1.166 and 0.6488 and 0.05773 and 0.4739 and 2.133 and -0.01123 and 0.2998 and -0.1097
DRD3; Log[Drug] -9.52
  β-arrestin2 recruitment response at DRD3 (source data, replicate values): 0.6514 and 0.02761 and -0.07333 and 1.513 and -0.1516 and 0.7866 and 1.233 and 1.648 and 0.09503
DRD3; Log[Drug] -10
  β-arrestin2 recruitment response at DRD3 (source data, replicate values): 1.257 and -0.3865 and -0.07075 and 0.2387 and 0.7918 and -0.1413 and 0.6108 and 0.3983 and -0.4207
DRD3; Log[Drug] -10.52
  β-arrestin2 recruitment response at DRD3 (source data, replicate values): 3.755 and 0.333 and -0.07333 and 2.441 and 0.1379 and -0.03791 and 0.1961 and 1.7564 and 0.1754
[1]; Log[Drug] -6.52
  response, Fig_S10l, replicate values: -2.091
[1]; Log[Drug] -7
  response, Fig_S10l, replicate values: -4.051 and -1.4228 and 2.693 and -6.163 and -1.5474 and -1.737 and -7.607 and -30.8777 and -6.976
[1]; Log[Drug] -7.52
  response, Fig_S10l, replicate values: -6.555 and -13.4609 and -0.98 and 4.322 and -3.875 and -2.693 and -7.055 and 7.925 and -34.7877
[1]; Log[Drug] -8
  response, Fig_S10l, replicate values: -3.792 and 35.132 and 2.507 and -11.1986 and -6.626 and 6.545 and -5.91 and -30.1494 and -3.473
[1]; Log[Drug] -8.52
  response, Fig_S10l, replicate values: 1.522 and -11.8615 and -2.437 and 12.7169 and -12.0506 and -8.665 and 20.957 and -2.778 and -10.1926
[1]; Log[Drug] -9
  response, Fig_S10l, replicate values: -4.295 and 4.13 and 0.2396 and -2.794 and 1.184 and 0.6235 and -1.336 and -7.8842 and -10.8253
[1]; Log[Drug] -9.52
  response, Fig_S10l, replicate values: 25.6854 and -2.744 and -6.32 and -4.5985 and -1.891 and 4.517 and 39.1804 and -4.421 and -3.844
[1]; Log[Drug] -10
  response, Fig_S10l, replicate values: -8.462 and 9.478 and -1.609 and 0.3049 and 15.9901 and -6.166 and 19.6932 and 12.6773 and 5.951
[1]; Log[Drug] -10.52
  response, Fig_S10l, replicate values: 6.737 and -12.3624 and -4.665 and -4.851 and -5.052 and -4.841 and 9.484 and 11.2587 and 10.4562
[1]; Log[Drug] -11
  response, Fig_S10l, replicate values: -35.1417 and -18.9513 and -15.3749 and 4.5184 and -0.5498 and 5.57 and -9.125 and -8.22 and 4.834
[1]; Log[Drug] -11.52
  response, Fig_S10l, replicate values: -5.783 and 6.132 and 4.745 and -13.0691 and -5.46 and 4.358 and -4.571 and 10.1317 and -13.0711
[1]; Log[Drug] -12
  response, Fig_S10l, replicate values: 6.173 and -15.2273 and 9.6789 and 4.873 and 7.863 and 1.749 and -9.697 and 0.6459 and 4.404
